Like-named read-outs stand apart in the source and are kept apart here.
How the values were obtained:
HIV-1SKI = test: Analysis of replicated viral DNA (Hirt fractions), CEM-SS cells; format: cell-based
Description: Analysis of viral replication. CEM-SS cells (2×10^7) were infected with HIV-1SKI (MOI of I) for 45 minutes at 37 ° C. with gentle mixing. Following virus attachment, the cells were gently pelleted, washed twice and resuspended in complete tissue culture medium. The cells were then divided into aliquots, treated with various concentrations of drug and placed in T75 culture flasks. The cells were incubated at 37° C. for 18-20 hours and then harvested by centriguation. To extract nucleic acids for analysis of HIV-1 integration low- and high-molecular weight DNA were prepared from HIV-1 infected cells (untreated or treated with increasing concentrations of drug) according to the protocol originally described by Hirt (Hirt, B. J., J. Mol. Biol. 26:365-369 (1967)) and modified by Gowda et al., Gowda, et al., J. Immunol. 142:773-780 (1989).
DNA (300 ng), obtained from the low-molecular weight Hirt fractions, was used as the template in PCR analysis undergoing a 30 cycle amplification reaction using the conditions described by Steinkasserer et al. (Steinkasserer, et al., J. Virol. 69:814-824 (1995)). […] PCR products were separated by agarose gel electrophoresis and visualized by ethidium bromide staining.

[1] = parameters: species or system cynomolgus monkeys; details: cynomolgus monkey, in vivo; for AR177 plasma (CMAX): iv
Description: Dosing. Twelve experimentally naive cynomolgus monkeys were assigned to four groups of three animals each. Prior to dosing, each animal was lightly sedated with a combination of ketamine (1 0 mg/kg) and diazepam (0.5 mg/kg), and a catheter was introduced into the femoral artery for recording central arterial pressure. Monkeys were given a single intravenous infusion of 5, 20, or 50 mg AR177/kg or saline over ten minutes through a cephalic vein catheter using a Harvard infusion pump. Arterial blood samples were drawn at −10, +10, +20, +40, +60 and +120 minutes relative to the initiation of infusion into EDTA-containing tubes for hematology, complement factors, coagulation assay, serum chemistry, and plasma AR177 determination. At 24 hours post-infusion, blood was drawn via the femoral vein into EDTA-containing tubes for these same parameters. The concentration of AR177 in dosing solutions was confirmed post experiment by absorbance at 280 nm on a spectrophotometer. For the determination of AR177 by HPLC, the plasma fraction was obtained by low speed centrifugation of blood, and stored at −20° C. until used. Electrocardiograms (ECGs), central pressure, and heart rate were recorded continuously for 120 minutes following the initiation of doing. Table E-1 summarizes the study design. The animals were observed twice daily pharmacotoxic signs and general health beginning two days before dosing and for seven days following dosing. The monkeys were not necropsied at the end of the study.
HPLC analysis of AR177 plasma concentration. AR177 was assayed in the plasma using an anion-exchange HPLC method on a Waters HPLC system with a 626 pump, 996 photodiode array detector, 717 autosampler and Millennium system software controlled by an NEC Image 466 computer. Buffer A consisted of 0.1 M Tris base, 20% methanol, pH 12, and Buffer B consisted of 0.1 M Tris base, 1.0 M NaBr, pH 12. The anion-exchange column (Gen-Pak Fax column) was equilibrated at 80% buffer A/20% buffer B for 30 minutes before each HPLC run. Fifty microliters of 0.2˜filtered, neat plasma were analyzed per run. The elusion conditions were: a) five-minute isoaatic run at 80% A/20% B. during which the majority of the plasma proteins eluted, b) 25-minute linear gradient to 30% A/70% B during which AR177 elutes, c) five-minute Socratic run at 30% A/70% B. d) one-minute linear gradient to 100% B. e) two-minute run at 100% B for column clean-up, and fl two-minute linear gradient to 70% A/30% B for the step in the HPLC clean-up. The high pH (12) of the elusion buffers was necessary to dissociate AR177 from tissue constituents, which bind AR177 tightly around physiological pH. AR177 is completely stable at pH 12. This method can clearly distinguish between the full length AR177 and n-1, n-2, etc. species, which are potential metabolic products. The ultraviolet detection wavelength was 260 nm. The flow rate was 0.5 mL/minute in all steps. Column clean up between runs was performed by a 500 pL bolus injection of 0.1 M Tris base, 2 M NaCl, pH 10.5, followed by: a) ten-minute linear gradient to 60% A/40% B. b) one-minute linear gradient to 100% B. c) a three-minute isocratic run at 100% B and d) one-minute linear gradient to 80% A/20% B.
A standard curve was generated by spiking AR177 into cynomolgus monkey plasma in order to achieve concentrations of 0.04 to 128 μ/mL. The plasma standards and unspiked plasma (control) were run on the anion-exchange HPLC column using e above conditions. The Waters Millennium software was used to determine the area under the peak for each AR177 standard at 260 nm. The HPLC peak area versus AR177 concentration was plotted using Cricket Graph III 1.5.1 software. There were one to three HPLC replicate runs per AR177 standard. The limit of quantitation was 25 ng/mL (50 pL injection), whereas the limit of detection was 5 ng/mL (50 pL injection). […]

HIV-2 integrase = target: T1, HIV-2 integrase (Human immunodeficiency virus type 2 subtype A, UniProt P04584); test: HIV-2 integrase 3′-processing assay; format: biochemical; details: HIV-1 DNA
T1 construct: A plasmid encoding the HIV-2 integrase was generously provided by Dr. R. H. A. Plasterk; made in house
T1 sequence (P04584 1172-1464): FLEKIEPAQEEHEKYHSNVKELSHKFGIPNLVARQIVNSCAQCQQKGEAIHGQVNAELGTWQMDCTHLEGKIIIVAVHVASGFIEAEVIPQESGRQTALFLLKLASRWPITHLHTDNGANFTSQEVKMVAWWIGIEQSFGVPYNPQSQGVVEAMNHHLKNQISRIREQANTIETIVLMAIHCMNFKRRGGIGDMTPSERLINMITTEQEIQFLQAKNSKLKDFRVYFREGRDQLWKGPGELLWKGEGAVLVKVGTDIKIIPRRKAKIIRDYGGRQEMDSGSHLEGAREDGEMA

HIV-2 (ROD, EHO) = test: HIV-2 infection assay in MT4 cells; format: cell-based; details: read-out: IC50 virus production

5′-gtggtgggtgggtgggt-3′ [T30177] (GTGGTGGGTGGGTGGGT; phosphorothioate termini, further chemistry not given here) [pPT version of parent compound I100-15, 17 mer]
IC50 virus-induced cytopathogenicity (Sindbis virus; Sindbis virus): >200 µg/mL
MCC minimum concentration altering normal cell morphology (Sindbis virus; Sindbis virus assay): ≧200 μg/mL
extent of viral replication (PCR of Hirt DNA) (HIV-1SKI): up to an including the production of 2-LTR circles

5′-gtggtgggtgggtgggt-3′ (GTGGTGGGTGGGTGGGT; phosphorothioate termini, further chemistry not given here) [T30177]
initial plasma half-life [1]: 20 to 30 min
initial volume of distribution (Vd) of the three doses [1]: 200 to 248 mL
metabolites in plasma [1]: No metabolites
terminal plasma half-life [1]: approximately 24 hours
Vd ([1]; 5 mg/kg): 247.6 ± 21.4 mL
Vd ([1]; 20 mg/kg): 184.5 ± 14.3 mL
Vd ([1]; 50 mg/kg): 200.7 ± 56.4 mL
AR177 plasma (CMAX) ([1]; 5 mg/kg): 83.2 ± 7.2 µg/mL
AR177 plasma (CMAX) ([1]; 20 mg/kg): 397.8 ± 30.8 µg/mL
AR177 plasma (CMAX) ([1]; 50 mg/kg): 804.7 ± 226.3 µg/mL
IC50 (HIV-2 integrase): 0.09 µM
IC50 (HIV-2 (ROD, EHO); HIV-2EHO): 5.98 ± 1.05 µM
IC50 (HIV-2 (ROD, EHO); HIV-2ROD): 27.5 ± 11.6 µM
IC50 virus-induced cytopathogenicity (RSV (A2); RSV (A2)): >200 µg/mL
MCC minimum concentration altering normal cell morphology (RSV (A2); RSV (A2) assay): >400 μg/mL

— patent publication US6355785B1, “Guanosine-rich oligonucleotide integrase inhibitors” (Aronex Pharmaceuticals, Inc., priority 1993, dated 2002)
